Results from ChEMBL document CHEMBL5291721, “A preclinical secondary pharmacology resource illuminates target-adverse drug reaction associations of marketed drugs” (Nat Commun, 2023).
Values joined by “and” are separate entries in the source; they are usually repeats but may differ in a detail not shown here. Identical values can stand only once.

How the values were obtained:
B2 bradykinin receptor = target: T1, B2 bradykinin receptor (Homo sapiens, UniProt P30411)
T1 sequence (P30411 whole entry): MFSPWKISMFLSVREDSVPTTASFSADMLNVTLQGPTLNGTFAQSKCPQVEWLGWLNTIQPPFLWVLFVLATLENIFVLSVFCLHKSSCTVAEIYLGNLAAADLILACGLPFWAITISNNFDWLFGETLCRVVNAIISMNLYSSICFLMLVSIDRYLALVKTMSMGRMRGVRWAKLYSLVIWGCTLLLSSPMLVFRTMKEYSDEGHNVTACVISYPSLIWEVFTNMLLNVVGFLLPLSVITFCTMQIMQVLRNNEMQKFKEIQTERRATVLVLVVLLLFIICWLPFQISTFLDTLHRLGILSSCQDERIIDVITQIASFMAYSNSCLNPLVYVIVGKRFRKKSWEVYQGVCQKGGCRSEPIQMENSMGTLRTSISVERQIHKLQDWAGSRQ

[1] = target: T2, 5-hydroxytryptamine receptor 1A (Homo sapiens, UniProt P08908); assay type: functional, cell-based
T2 sequence (P08908 whole entry): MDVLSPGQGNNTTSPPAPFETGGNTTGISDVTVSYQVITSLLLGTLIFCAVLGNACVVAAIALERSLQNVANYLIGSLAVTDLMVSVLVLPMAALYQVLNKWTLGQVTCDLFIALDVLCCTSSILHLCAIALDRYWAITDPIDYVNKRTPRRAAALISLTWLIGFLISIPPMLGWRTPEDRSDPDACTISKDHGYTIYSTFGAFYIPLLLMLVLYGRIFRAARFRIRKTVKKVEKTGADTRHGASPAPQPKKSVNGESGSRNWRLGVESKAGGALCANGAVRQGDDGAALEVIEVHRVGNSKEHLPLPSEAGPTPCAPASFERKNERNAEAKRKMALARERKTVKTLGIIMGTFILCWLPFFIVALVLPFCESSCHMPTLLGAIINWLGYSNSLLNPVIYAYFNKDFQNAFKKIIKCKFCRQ

[2] = target: T3, Gastrin/cholecystokinin type B receptor (Homo sapiens, UniProt P32239)
T3 sequence (P32239 whole entry): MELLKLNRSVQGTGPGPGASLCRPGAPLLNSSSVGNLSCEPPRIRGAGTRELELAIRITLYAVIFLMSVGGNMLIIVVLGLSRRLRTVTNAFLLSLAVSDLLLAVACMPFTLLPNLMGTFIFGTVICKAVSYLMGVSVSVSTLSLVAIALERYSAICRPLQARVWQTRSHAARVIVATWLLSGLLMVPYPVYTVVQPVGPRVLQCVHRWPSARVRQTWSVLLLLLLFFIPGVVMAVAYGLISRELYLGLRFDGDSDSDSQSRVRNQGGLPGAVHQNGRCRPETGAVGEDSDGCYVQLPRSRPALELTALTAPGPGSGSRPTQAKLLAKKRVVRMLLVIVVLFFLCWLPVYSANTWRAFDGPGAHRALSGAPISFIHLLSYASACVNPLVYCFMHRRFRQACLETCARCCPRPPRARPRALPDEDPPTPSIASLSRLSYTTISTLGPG

D(1A) dopamine receptor = D(1A) dopamine receptor (Homo sapiens, UniProt P21728); assay type: functional, cell-based
Sequence of D(1A) dopamine receptor (P21728 whole entry): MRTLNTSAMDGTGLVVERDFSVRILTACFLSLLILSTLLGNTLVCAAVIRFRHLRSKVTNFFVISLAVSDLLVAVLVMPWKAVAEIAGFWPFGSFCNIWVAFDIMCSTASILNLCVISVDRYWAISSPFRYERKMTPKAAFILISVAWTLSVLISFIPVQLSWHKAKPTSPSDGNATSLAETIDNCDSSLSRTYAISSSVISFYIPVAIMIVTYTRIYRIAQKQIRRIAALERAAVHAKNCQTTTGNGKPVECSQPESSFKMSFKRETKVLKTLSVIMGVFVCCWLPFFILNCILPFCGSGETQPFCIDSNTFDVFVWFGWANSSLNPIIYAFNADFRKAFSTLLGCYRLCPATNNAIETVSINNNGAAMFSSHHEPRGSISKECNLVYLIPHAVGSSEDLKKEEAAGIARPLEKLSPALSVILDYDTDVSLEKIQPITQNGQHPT

[3] = target: Delta-type opioid receptor (Homo sapiens, UniProt P41143)
Sequence of Delta-type opioid receptor (P41143 whole entry): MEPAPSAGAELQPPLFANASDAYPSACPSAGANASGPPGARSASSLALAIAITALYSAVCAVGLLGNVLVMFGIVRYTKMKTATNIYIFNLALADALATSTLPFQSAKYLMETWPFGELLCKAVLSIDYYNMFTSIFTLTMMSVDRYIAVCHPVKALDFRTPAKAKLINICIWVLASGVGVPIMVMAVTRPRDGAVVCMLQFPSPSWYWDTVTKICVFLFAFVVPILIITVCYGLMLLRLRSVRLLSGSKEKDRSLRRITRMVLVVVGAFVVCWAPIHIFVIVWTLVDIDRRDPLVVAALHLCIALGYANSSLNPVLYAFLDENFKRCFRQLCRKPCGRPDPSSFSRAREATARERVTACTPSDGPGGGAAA

[4] = target: 5-hydroxytryptamine receptor 2B (Homo sapiens, UniProt P41595); assay type: functional, cell-based
Sequence of 5-hydroxytryptamine receptor 2B (P41595 whole entry): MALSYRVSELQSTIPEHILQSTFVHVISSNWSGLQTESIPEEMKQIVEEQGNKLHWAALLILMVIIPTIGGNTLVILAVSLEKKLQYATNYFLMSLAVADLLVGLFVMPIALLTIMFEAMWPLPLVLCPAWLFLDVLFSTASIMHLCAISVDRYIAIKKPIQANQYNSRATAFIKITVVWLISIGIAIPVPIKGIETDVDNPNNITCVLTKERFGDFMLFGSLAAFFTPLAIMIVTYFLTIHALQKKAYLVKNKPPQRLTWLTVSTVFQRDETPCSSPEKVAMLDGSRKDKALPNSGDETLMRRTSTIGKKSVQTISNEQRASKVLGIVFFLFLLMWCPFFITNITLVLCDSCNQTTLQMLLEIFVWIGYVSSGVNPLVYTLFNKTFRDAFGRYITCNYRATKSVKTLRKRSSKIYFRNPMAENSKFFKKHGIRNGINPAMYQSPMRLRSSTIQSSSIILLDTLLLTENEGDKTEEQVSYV

[5] = target: T4, 5-hydroxytryptamine receptor 3A (Homo sapiens, UniProt P46098); assay type: functional
T4 sequence (P46098 whole entry): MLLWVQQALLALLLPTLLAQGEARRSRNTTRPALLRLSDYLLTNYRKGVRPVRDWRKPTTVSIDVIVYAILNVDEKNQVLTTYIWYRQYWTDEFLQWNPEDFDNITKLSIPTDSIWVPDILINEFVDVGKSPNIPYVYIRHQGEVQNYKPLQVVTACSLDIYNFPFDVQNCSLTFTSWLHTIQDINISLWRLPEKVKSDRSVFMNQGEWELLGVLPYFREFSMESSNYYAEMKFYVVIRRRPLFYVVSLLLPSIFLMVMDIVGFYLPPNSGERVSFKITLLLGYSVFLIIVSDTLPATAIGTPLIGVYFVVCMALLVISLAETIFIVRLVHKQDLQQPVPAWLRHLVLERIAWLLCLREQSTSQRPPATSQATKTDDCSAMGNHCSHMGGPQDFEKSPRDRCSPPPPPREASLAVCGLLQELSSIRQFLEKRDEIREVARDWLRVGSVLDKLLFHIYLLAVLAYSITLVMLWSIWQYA

[6] = target: T5, Alpha-2A adrenergic receptor (Homo sapiens, UniProt P08913); assay type: functional, cell-based
T5 sequence (P08913 whole entry): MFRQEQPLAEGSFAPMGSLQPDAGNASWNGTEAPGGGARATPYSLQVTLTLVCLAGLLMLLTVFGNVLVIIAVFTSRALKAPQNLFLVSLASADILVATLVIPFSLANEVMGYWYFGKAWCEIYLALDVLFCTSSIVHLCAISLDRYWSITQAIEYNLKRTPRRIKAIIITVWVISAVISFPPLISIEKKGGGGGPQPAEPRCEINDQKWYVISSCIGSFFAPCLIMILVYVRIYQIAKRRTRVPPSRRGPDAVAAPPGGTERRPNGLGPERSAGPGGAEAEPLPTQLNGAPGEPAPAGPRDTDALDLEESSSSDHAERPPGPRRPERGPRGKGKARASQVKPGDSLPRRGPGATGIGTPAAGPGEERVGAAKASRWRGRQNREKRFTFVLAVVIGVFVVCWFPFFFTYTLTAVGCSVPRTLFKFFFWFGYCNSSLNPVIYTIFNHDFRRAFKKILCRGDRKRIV

[7] = target: Sodium-dependent noradrenaline transporter (Homo sapiens, UniProt P23975)
Sequence of Sodium-dependent noradrenaline transporter (P23975 whole entry): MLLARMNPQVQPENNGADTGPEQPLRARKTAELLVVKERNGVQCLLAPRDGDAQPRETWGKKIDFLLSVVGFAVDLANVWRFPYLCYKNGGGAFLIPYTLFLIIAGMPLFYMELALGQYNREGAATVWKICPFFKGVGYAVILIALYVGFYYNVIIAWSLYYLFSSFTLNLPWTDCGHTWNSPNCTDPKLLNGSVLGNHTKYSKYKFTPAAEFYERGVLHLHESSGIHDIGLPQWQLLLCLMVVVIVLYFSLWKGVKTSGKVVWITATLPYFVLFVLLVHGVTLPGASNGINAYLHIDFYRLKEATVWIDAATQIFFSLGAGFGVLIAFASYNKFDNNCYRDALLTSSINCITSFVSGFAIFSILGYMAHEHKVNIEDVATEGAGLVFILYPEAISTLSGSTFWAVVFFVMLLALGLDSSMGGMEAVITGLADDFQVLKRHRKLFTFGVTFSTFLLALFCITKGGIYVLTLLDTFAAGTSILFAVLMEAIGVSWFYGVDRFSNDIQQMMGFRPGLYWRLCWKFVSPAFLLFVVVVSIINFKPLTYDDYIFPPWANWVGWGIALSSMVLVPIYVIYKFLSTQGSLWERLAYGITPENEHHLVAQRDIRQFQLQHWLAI
Further: assay procedure not described here.

| SMILES | AC50 (B2 bradykinin receptor) | AC50 [1] | AC50 [2] | AC50 (D(1A) dopamine receptor) | AC50 [3] | AC50 [4] | AC50 [5] | AC50 [6] | AC50 [7] |
| --- | --- | --- | --- | --- | --- | --- | --- | --- | --- |
| Fc1ccc([C@@H]2CCNC[C@H]2COc2ccc3c(c2)OCO3)cc1 [PAROXETINE] | > 30 µM | 17 µM | > 30 µM | > 10 µM | 0.83 µM | 9.9 µM and > 30 µM | > 10 µM | – | – |
| CO[C@H]1C[C@H](O[C@H]2CC[C@@]3(C)[C@H](CC[C@@H]4[C@@H]3CC[C@]3(C)[C@@H](C5=CC(=O)OC5)[C@@H](OC(C)=O)C[C@]43O)C2)O[C@@H](C)[C@@H]1O [OLEANDRIN] | – | > 30 µM | – | > 30 µM | > 30 µM | – | > 30 µM | > 30 µM | – |
| CCc1nc(N)nc(N)c1-c1ccc(Cl)cc1 [PYRIMETHAMINE] | > 10 µM | 18 µM | – | > 10 µM | > 30 µM | 37 µM | > 30 µM | > 30 µM | > 30 µM |
| CC1=C(/C=C/C(C)=C/C=C/C(C)=C/CO)C(C)(C)CCC1 [RETINOL] | > 10 µM | > 10 µM | – | > 10 µM | > 30 µM | > 10 µM | > 30 µM | > 10 µM | > 10 µM |
| NS(=O)(=O)c1cc2c(cc1Cl)N=C(CSCc1ccccc1)NS2(=O)=O [BENZTHIAZIDE] | > 10 µM | > 10 µM | – | > 10 µM | > 30 µM | > 10 µM | > 10 µM | 1.7 µM | > 10 µM |
| CC(c1cc2ccccc2s1)N(O)C(N)=O (stereo not drawn) [ZILEUTON] | > 10 µM | > 10 µM | – | > 10 µM | > 30 µM | > 10 µM | > 30 µM | > 10 µM | > 10 µM |
| CC(C)[C@@H](C)/C=C/[C@@H](C)[C@H]1CC[C@H]2/C(=C/C=C3\C[C@@H](O)CC[C@@H]3C)CCC[C@]12C [DIHYDROTACHYSTEROL] | > 10 µM | > 10 µM | – | > 10 µM | > 30 µM | > 10 µM | > 30 µM | > 10 µM | > 10 µM |
| Cc1cc(C)nc(NS(=O)(=O)c2ccc(N)cc2)n1 [SULFAMETHAZINE] | > 10 µM | > 10 µM | – | > 30 µM | > 30 µM | > 10 µM | > 30 µM | > 10 µM | > 10 µM |
| CCCC(C)(COC(N)=O)COC(N)=O [MEPROBAMATE] | > 10 µM | > 10 µM | – | > 10 µM | > 30 µM | > 10 µM | > 30 µM | > 10 µM | > 10 µM |
| CCCN(CCC)S(=O)(=O)c1ccc(C(=O)O)cc1 [PROBENECID] | > 10 µM | > 10 µM | – | > 10 µM | > 30 µM | > 10 µM | > 30 µM | > 10 µM | > 10 µM |
| CC(=O)c1ccc(S(=O)(=O)NC(=O)NC2CCCCC2)cc1 [ACETOHEXAMIDE] | > 10 µM | > 30 µM | – | > 10 µM | > 30 µM | > 30 µM | > 30 µM | > 30 µM | > 10 µM |
| NC(=O)NC(=O)Cc1ccccc1 [PHENACEMIDE] | > 10 µM | > 10 µM | – | > 10 µM | > 30 µM | > 10 µM | > 30 µM | > 10 µM | > 10 µM |
| COc1ccc2cc(CCC(C)=O)ccc2c1 [NABUMETONE] | > 10 µM | > 10 µM | – | > 30 µM | > 30 µM | > 10 µM | > 30 µM | > 10 µM | 20 µM |
| O=C(O)c1ccc(NC(=O)[C@H](Cc2ccc(O)cc2)NC(=O)c2ccccc2)cc1 [BENTIROMIDE] | > 10 µM | > 10 µM | – | > 10 µM | > 30 µM | > 10 µM | > 30 µM | > 10 µM | > 10 µM |
| O=C(c1cc(Cc2n[nH]c(=O)c3ccccc23)ccc1F)N1CCN(C(=O)C2CC2)CC1 [OLAPARIB] | > 30 µM | > 10 µM | – | > 10 µM | > 30 µM | > 10 µM | > 30 µM | > 10 µM | > 30 µM |
| CCCCCCCC(=O)CC[C@@H]1[C@@H](C/C=C\CCCC(=O)OC(C)C)[C@@H](O)C[C@H]1O [UNOPROSTONE ISOPROPYL] | – | – | – | – | > 30 µM | > 30 µM | – | – | 7.2 µM |
| COc1cc(C)c(/C=C/C(C)=C/C=C/C(C)=C/C(=O)O)c(C)c1C [ACITRETIN] | > 10 µM | > 10 µM | – | > 10 µM | > 30 µM | > 10 µM | > 30 µM | > 10 µM | > 10 µM |
| COc1ccc(C2C(=O)c3ccccc3C2=O)cc1 [ANISINDIONE] | > 10 µM | > 10 µM | – | > 30 µM | > 30 µM | > 10 µM | > 30 µM | > 10 µM | > 10 µM |
| COc1cc(N)c(Cl)cc1C(=O)NC1CCN(CCCOc2ccc(F)cc2)CC1OC (stereo not drawn) [CISAPRIDE] | > 30 µM | > 10 µM | > 30 µM | > 10 µM | > 10 µM | – | > 30 µM | – | > 30 µM |
| C=CCN1CCc2nc(N)sc2CC1 [TALIPEXOLE] | > 30 µM | > 30 µM | > 30 µM | > 30 µM | > 30 µM | > 30 µM | > 30 µM | – | > 30 µM |
| O=C(CCCN1CCC(O)(c2ccc(Br)cc2)CC1)c1ccc(F)cc1 [BROMPERIDOL] | > 30 µM | > 30 µM | > 30 µM | > 30 µM | > 30 µM | > 30 µM | > 30 µM | – | – |
| CCC1(CCC(C)C)C(=O)NC(=O)NC1=O [AMOBARBITAL] | > 10 µM | > 10 µM | – | > 10 µM | > 30 µM | > 10 µM | > 30 µM | > 10 µM | > 10 µM |
| CC(=O)[C@H]1CC[C@H]2[C@@H]3C[C@H](C)C4=CC(=O)CC[C@]4(C)[C@H]3[C@@H](O)C[C@]12C [MEDRYSONE] | > 10 µM | > 10 µM | – | > 10 µM | > 30 µM | > 10 µM | > 30 µM | > 10 µM | > 10 µM |
